Where a SMILES comes first, the peptide text is derived from it. The star is where a group is joined. X1 = CC1(C)C(=CC=C2CCCC(C=CC3=[N+](CCCCCC(=O)O)c4ccccc4C3(C)C)=C2*)N(CCCCCC(=O)O)c2ccccc21
Key:
[1] = test system: H460 cells; type: cell-based, human; settings: 50 μM for 6, 12, 24 h (flow cytometry), 1–100 μM 24 h (CCK-8)
Description: lysed in an ice bath at 1℃, 16000g for 15 minutes, the supernatant was transferred to a pre-cooled centrifuge tube in an ice bath. For each group, 20 μM (final concentration) Ac-DEVD-AMC and 100μl cell lysate were added to 1 ml Protease Assay Buffer [20 mM HEPES (pH 7.5), 10% glycerol, 2 mM DTT]. The reaction mixtures were incubated for 1 hour at 37 °C. The AMC released from Ac-DEVD-AMC was measured using a spectrofluorometer with an excitation wavelength of 380 nm and an emission wavelength range of 400-550 nm.
Flow cytometry analysis. A density of 1 × 10^5 H460 cells per well were seeded in the 6-well plates in 1640 medium which contains 10% fetal bovine serum and 1% penicillin–streptomycin, then cultured at 37 °C in a humidified atmosphere with 5% CO 2 for 16 h. Then molecules 1, 2 and 3 (50 μM) were added to each well, and the cells were incubated for additional 6 h, 12 h and 24 h, respectively. The apoptosis of the collected cells stained by Annexin V -FITC and PI (propidium iodide) was studied by […]
Cell viability assays . CCK-8 (cell counting kit-8) assay was carried out to investigate the cell viability.
H460 cells were utilized to evaluate the cytotoxicity of molecules 1, 2 and 3 by the CCK-8 assay.
Molecules 1, 2 and 3 were dispersed in 1640 medium with different concentration s such as 1, 5, 10, 30, 60 and 100 μM. The cells with the density of 5 × 10^4 cells per well were seeded in the 96 -well plates in 1640 medium containing 10% fetal bovine serum and 1% penicillin –streptomycin, then cultured at 37 °C in a humidified atmosphere with 5% CO 2 for 16 h. […]
Microplate reader was used to measure the UV -Vis absorptions of sample wells (A sample), Ablack and control wells (A control) at a test wavelength of 450 nm and a reference wavelength of 690 nm, […]
Blood circulation. […] The supernatant of the blood samples was collected by centrifugation at 10 000 rpm for 10 min , and the content of compound 1, 2 and 3 in the supernatant w ere determined using fluorescence spectrophotometric measurement. […]
3 h. […] Morphologies of liposomes were measured by Tecnai G20 electron microscope. […]

[2] = test system: H460 tumour-bearing nude mice; assay: Pharmacokinetic parameters in tumour (DAS2.0); type: in vivo, mouse; settings: IV 14 mg/kg; for AUC0→t / AUC0→∞ / CL / MRT(0-t), mean retention time / Tmax / t1/2β, elimination half-life: in tumour, means ± SD n = 3; for AUC0→t: 0–48 h
Description: Animal experiments were performed in accordance with the Guide for the Care and Use of Laboratory Animals and approved by the Institutional Animal Care and Use Committee (IACUC) of the National Center for Nanoscience and Technology (NCNST), China. Female Balb/c nude mice (6–8 weeks, 18–22 g) were purchased from Vital River Laboratory Animal Technology Co. Ltd. H460 cells were subcutaneously implanted into these mice on the right flank. Then the mice were randomly grouped (n = 3). When the tumour grew to a single aspect of about 0.5 cm, we injected the molecules 1, 2 and 3 intravenously in the same dose of 14 mg/kg in PBS solution, respectively. Fluorescence images were measured by a Maestro II in vivo imaging system (CRi) at 1, 2, 4, 6, 8, 12, 24, 48, 72, 96 and 120 h post injection. Further, tumours and other major organs (i.e., heart, liver, spleen, lung and kidney) were collected for ex vivo fluorescence imaging at 48 h post injection. The organ biodistribution of the 1, 2 and 3 was examined using H460 xenografts mice. The mice were sacrificed at 2, 4, 8, 12, 24 or 48 h post injection. Finally, all the major organs and tumour were collected, weighed, and homogenized (0.3 mL of lysis buffer per 100 mg of tissues). The homogeneous tissue solutions were obtained for fluorescence imaging by IVIS Spectrum CT. Known concentrations of compound 1, 2 or 3 are used to make the standard curve (concentration from 2.8 to 25.2 μg/mL), the “Predicted R-Squared” value of 0.99. Then we utilized this standard curve to measure the molecule content in each tissue. In addition, EJ xenograft tumour mice model was built, as above described, to validate the generality of the strategy.
Supplementary Table 1︱Pharmacokinetic parameters of intravenously-administered 1, 2 and 3 in […]
Data are presented as means ± SD (n = 3). t1/2β, elimination half -life; CL, plasma clearance; Cmax, maximum concentration; Tmax, peak time ; MRT: mean retention time; AUC(0 -t), area under the 1, 2 and 3 concentration-time curve from time zero to the last quantifiable value; AUC(0 -∞), area und er the 1, 2 and 3 concentration -time curve from time zero to infinity, which represents the total drug exposure over time. h, hour(s).

CC[C@H](C)[C@H](NC(=O)[C@@H]1CCCN1C(=O)[C@@H](NC(=O)[C@H](C)N)C(C)C)C(=O)N[C@@H](C)C(=O)N[C@@H](CCC(N)=O)C(=O)N[C@@H](CCCCN)C(=O)N[C@@H](CC(=O)O)C(=O)N[C@@H](CCC(=O)O)C(=O)N[C@H](C(=O)N[C@@H](CC(=O)O)C(=O)N[C@@H](CCCCN)C(=O)N[C@@H](CC(C)C)C(=O)N[C@H](C(=O)N[C@@H](Cc1ccccc1)C(=O)N[C@@H](Cc1ccccc1)C(=O)N[C@@H](C)C(=O)N[C@@H](CCC(=O)O)C(=O)N[C@@H](CSC1=C(C=CC2=[N+](CCCCCC(=O)O)c3ccccc3C2(C)C)CCCC1=CC=C1N(CCCCCC(=O)O)c2ccccc2C1(C)C)C(=O)NCC(=O)O)C(C)C)C(C)C [molecule 1] (H-AVPIAQKDEVDKLVFFAEC(X1)G-OH) was tested, and the “apoptotic cell death (flow cytometry and cell viability assays)” value (“apoptotic cell death” below) [1] was “No apoptosis was observed”, the “AUC0–48h in tumour of molecule 1 relative to 2” value [2] was “six-fold” and the “AUC0–48h in tumour of molecule 1 relative to 3” value [2] was “three-fold”. The AUC0→t [2] was 71.2 ± 4.7 mg·h/g, the “AUC0→∞” value [2] was 145.9 ± 1.0 mg·h/g and the CL [2] was 1.3 ± 0.5 mL/min/kg. The “MRT(0-t), mean retention time” value [2] was 23.4 ± 0.2 h, the Tmax [2] was 4.0 ± 0 h and the “t1/2β, elimination half-life” value [2] was 69.3 ± 0 h.
For CSCC[C@H](N)C(=O)N[C@@H](CC(=O)O)C(=O)N[C@@H](CCC(=O)O)C(=O)N[C@@H](CCCCN)C(=O)N[C@@H](C)C(=O)N[C@@H](CCC(N)=O)C(=O)N[C@@H](CCCCN)C(=O)N[C@@H](CC(=O)O)C(=O)N[C@@H](CCC(=O)O)C(=O)N[C@H](C(=O)N[C@@H](CC(=O)O)C(=O)N[C@@H](CCCCN)C(=O)N[C@@H](CC(C)C)C(=O)N[C@H](C(=O)N[C@@H](Cc1ccccc1)C(=O)N[C@@H](Cc1ccccc1)C(=O)N[C@@H](C)C(=O)N[C@@H](CCC(=O)O)C(=O)N[C@@H](CSC1=C(C=CC2=[N+](CCCCCC(=O)O)c3ccccc3C2(C)C)CCCC1=CC=C1N(CCCCCC(=O)O)c2ccccc2C1(C)C)C(=O)NCC(=O)O)C(C)C)C(C)C [molecule 2] (H-MDEKAQKDEVDKLVFFAEC(X1)G-OH; N-terminus assumed), the “apoptotic cell death” value [1] was “No apoptosis was observed”, the AUC0→t [2] was 12.2 ± 1.9 mg·h/g and the “AUC0→∞” value [2] was 14.1 ± 2.2 mg·h/g. The CL [2] was 16.7 ± 2.5 mL/min/kg, the “MRT(0-t), mean retention time” value [2] was 15.2 ± 4.5 h and the Tmax [2] was 3.3 ± 1.2 h. The “t1/2β, elimination half-life” value [2] was 10.0 ± 1.9 h.
CC[C@H](C)[C@H](NC(=O)[C@@H]1CCCN1C(=O)[C@@H](NC(=O)[C@H](C)N)C(C)C)C(=O)N[C@@H](C)C(=O)N[C@@H](CCC(N)=O)C(=O)N[C@@H](CCCCN)C(=O)N[C@@H](CC(=O)O)C(=O)N[C@@H](CCC(=O)O)C(=O)N[C@H](C(=O)N[C@@H](CC(=O)O)C(=O)N[C@@H](CCC(=O)O)C(=O)N[C@@H](CSC1=C(C=CC2=[N+](CCCCCC(=O)O)c3ccccc3C2(C)C)CCCC1=CC=C1N(CCCCCC(=O)O)c2ccccc2C1(C)C)C(=O)NCC(=O)O)C(C)C [molecule 3] (H-AVPIAQKDEVDEC(X1)G-OH; N-terminus assumed) was tested, and the “apoptotic cell death” value [1] was “No apoptosis was observed”, the AUC0→t [2] was 26.6 ± 8.9 mg·h/g and the “AUC0→∞” value [2] was 34.6 ± 12.2 mg·h/g. For the same compound, the CL [2] was 7.33 ± 2.5 mL/min/kg, the “MRT(0-t), mean retention time” value [2] was 10.7 ± 1.8 h and the Tmax [2] was 6.7 ± 2.3 h. The “t1/2β, elimination half-life” value [2] was 10.6 ± 2.8 h.
